System: NIH-3T3 cells infected with HA-HaloTag(D106A)-H-RasG12V
Experiment: Focus formation assay, HA-HaloTag(D106A)-H-RasG12V cells
Format: cell-based, mouse
Conditions: 1 μM, 1% FBS, day 6
Protocol: One hundred thousand NIH-3T3 cells infected with HA-HaloTag-H-RasG12V and HA-HaloTag(D106A)-H-RasG12V were plated onto 10-cm cell culture plates in 10% FBS with DMEM. The next day, the media was replaced with 1% FBS media and the cells were administered either vehicle or 1 μM HyT13. The media and the drug were replaced every two days. On day 6, the foci were photographed and counted as the number of distinct foci per 1-cm^2 area.
We next explored the functional utility of HaloTag-based degradation of an oncogene by HyT13 both in cell culture and in mice. The small GTPase H-Ras is one of the most commonly mutated genes in cancer, with up to […] of cancers harboring activating mutations in this gene^35. Activating mutations, such as the H-RasG12V allele, lead to decreased dependence on extracellular mitogenic signals. […] When H-RasG12V expressing cells are grown in culture under low serum conditions they lose cell-to-cell contact inhibition and form distinct foci instead of growing as a cellular monolayer. Furthermore, these transformed cells are capable of tumor formation when injected into immuno-compromised nude mice^36,37. We investigated whether (1) HaloTag-H-RasG12V driven focus formation can be suppressed in NIH-3T3 cells and (2) HaloTag-H-RasG12V driven tumor burden in mice can be reduced by administration of HyT13. […]

For `O=C(CC12CC3CC(CC(C3)C1)C2)NCCOCCOCCCCCCCl` [HyT13, 2-((3r,5r,7r)-Adamantan-1-yl)-N-(2-(2-((6-chlorohexyl)oxy)ethoxy)ethyl)acetamide], the focus formation was “had formed many foci”.

From US10145848B2, “Small-molecule hydrophobic tagging of fusion proteins and induced degradation of same” (YALE UNIVERSITY, priority 2010, dated 2018)
